Laboratory results taken from patent publication US12780800B1, “Triazole-pyridinyl substituted azacyclohexyl acetic acid compounds as LPA receptor antagonists” (Viva Star Biosciences Limited, priority 2021, dated 2022).
pIC50: −log10 of the molar value.

These compounds were tested against T1, LPA1 (Homo sapiens, UniProt Q92633) (assay: LPA1 calcium flux assay (LPA1 functional antagonist assay)). Details: PathHunter CHO-K1 EDG2 β-Arrestin cell line; calcium indicator dye; stimulated with EC80 concentration of LPA; FLIPR Tetra.
T1 construct: ProLink (PK) beta-galactosidase enzyme-fragment tag; host or cells: CHO-K1
Assay type: cell-based
Summary of the method: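 The LPA1 antagonist readout was intracellular calcium flux, and IC50 values were calculated from it. Plates stood 30 min at RT after compound addition. Cells, grown overnight, had first taken up calcium dye over 45 min at 37 °C.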

T1 sequence (Q92633 whole entry, the tested form may be a part): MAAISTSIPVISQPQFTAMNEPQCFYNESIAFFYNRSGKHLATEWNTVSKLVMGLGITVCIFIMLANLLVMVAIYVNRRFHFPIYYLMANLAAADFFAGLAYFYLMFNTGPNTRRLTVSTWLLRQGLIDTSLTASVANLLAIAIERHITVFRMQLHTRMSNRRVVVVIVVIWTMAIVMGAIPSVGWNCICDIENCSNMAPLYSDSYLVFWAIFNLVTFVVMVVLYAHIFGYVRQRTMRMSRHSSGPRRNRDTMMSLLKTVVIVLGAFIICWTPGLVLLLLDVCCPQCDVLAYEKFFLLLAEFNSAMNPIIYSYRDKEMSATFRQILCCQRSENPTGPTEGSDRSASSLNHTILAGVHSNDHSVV

pIC50 | SMILES
> 7.00 | CCc1nc(-c2cnn(C)c2COc2cc(-n3cccn3)ncn2)ccc1N1CCC[C@H](CC(=O)O)C1 [Example 90, (R)-2-(1-(6-(5-(((6-(1H-pyrazol-1-yl)pyrimidin-4-yl)oxy)methyl)-1-methyl-1H-pyrazol-4-yl)-2-ethylpyridin-3-yl)piperidin-3-yl)acetic acid]
< 5.30 | CCCc1cnn(Cc2c(-c3ccc(CN4CC(C(=O)O)CC(F)(F)C4)c(C)n3)nnn2C)c(=O)c1 (single isomer, unassigned) [Example 159, (R) or (S)-5,5-difluoro-1-((2-methyl-6-(1-methyl-5-((6-oxo-4-propylpyridazin-1(6H)-yl)methyl)-1H-1,2,3-triazol-4-yl)pyridin-3-yl)methyl)piperidine-3-carboxylic acid]
6.30 to 7.00 | CCc1nc(-c2nnn(C)c2COC(=O)N(C)CC2CC2)ccc1N1C[C@@H](CC(=O)O)CC(F)(F)C1 [Example 141, (S)-2-(1-(6-(5-((((cyclopropylmethyl)(methyl)carbamoyl)oxy)methyl)-1-methyl-1H-1,2,3-triazol-4-yl)-2-ethylpyridin-3-yl)-5,5-difluoropiperidin-3-yl)acetic acid]
5.30 to 6.30 | CCCc1ccnn(Cc2c(-c3ccc(N4C[C@@H](CC(=O)O)CC(F)(F)C4)c(C)n3)nnn2C)c1=O [Example 32, (S)-2-(5,5-difluoro-1-(2-methyl-6-(1-methyl-5-((6-0xo-5-propylpyridazin-1(6H)-yl)methyl)-1H-1,2,3-triazol-4-yl)pyridin-3-yl)piperidin-3-yl)acetic acid]
6.30 to 7.00 | CCCc1cn(Cc2c(-c3ccc(N4C[C@@H](CC(=O)O)CC(F)(F)C4)c(CC)n3)nnn2C)c(=O)cn1 [Example 29, (S)-2-(1-(2-ethyl-6-(1-methyl-5-((2-oxo-5-propylpyrazin-1(2H)-yl)methyl)-1H-1,2,3-triazol-4-yl)pyridin-3-yl)-5,5-difluoropiperidin-3-yl)acetic acid]
> 7.00 | Cc1nc(-c2nnn(C)c2COc2cc(-n3nccn3)ccn2)ccc1N1CCC[C@H](CC(=O)O)C1 [Example 104, (R)-2-(1-(6-(5-(((4-(2H-1,2,3-triazol-2-yl)pyridin-2-yl)oxy)methyl)-1-methyl-1H-1,2,3-triazol-4-yl)-2-methylpyridin-3-yl)piperidin-3-yl)acetic acid]
5.30 to 6.30 | CCCN(C)C(=O)OCc1c(-c2ccc(N3CCC[C@H](CC(=O)O)C3)c(C)n2)nnn1C [Example 144, (R)-2-(1-(2-methyl-6-(1-methyl-5-(((methyl(propyl)carbamoyl)oxy)methyl)-1H-1,2,3-triazol-4-yl)pyridin-3-yl)piperidin-3-yl)acetic acid]
6.30 to 7.00 | CCc1nc(-c2nnn(C)c2COc2ncnn2CC2CC2)ccc1N1C[C@@H](CC(=O)O)CC(F)(F)C1 [Example 122, (S)-2-(1-(6-(5-(((1-(cyclopropylmethyl)-1H-1,2,4-triazol-5-yl)oxy)methyl)-1-methyl-1H-1,2,3-triazol-4-yl)-2-ethylpyridin-3-yl)-5,5-difluoropiperidin-3-yl)acetic acid]
5.30 to 6.30 | CCCc1ccc(=O)n(Cc2c(-c3ncc(CN4CC(C(=O)O)CC(F)(F)C4)c(CC)n3)cnn2C)c1 (single isomer, unassigned) [Example 161, (R) or (S)-1-((4-ethyl-2-(1-methyl-5-((2-oxo-5-propylpyridin-1(2H)-yl)methyl)-1H-pyrazol-4-yl)pyrimidin-5-yl)methyl)-5,5-difluoropiperidine-3-carboxylic acid]
5.30 to 6.30 | CCCn1ncnc1OCc1c(-c2ccc(N3C[C@@H](CC(=O)O)CC(F)(F)C3)c(CC)n2)nnn1C [Example 121, (S)-2-(1-(2-ethyl-6-(1-methyl-5-(((1-propyl-1H-1,2,4-triazol-5-yl)oxy)methyl)-1H-1,2,3-triazol-4-yl)pyridin-3-yl)-5,5-difluoropiperidin-3-yl)acetic acid]
< 5.30 | CCCc1ccn(Cc2c(-c3ccc(N4C[C@@H](CC(=O)O)CC(F)(F)C4)c(CC)n3)nnn2C)c(=O)c1 [Example 8, (S)-2-(1-(2-ethyl-6-(1-methyl-5-((2-oxo-4-propylpyridin-1(2H)-yl)methyl)-1 H-1,2,3-triazol-4-yl)pyridin-3-yl)-5,5-difluoropiperidin-3-yl)acetic acid]
> 7.00 | Cc1nc(-c2nnn(C)c2COc2cc(-n3cccn3)ncn2)ccc1N1CCC[C@H](CC(=O)O)C1 [Example 85, (R)-2-(1-(6-(5-(((6-(1H-pyrazol-1-yl)pyrimidin-4-yl)oxy)methyl)-1-methyl-1H-1,2,3-triazol-4-yl)-2-methylpyridin-3-yl)piperidin-3-yl)acetic acid]
< 5.30 | CCCc1ccc(=O)n(Cc2c(-c3ccc(N4CC(CC(=O)O)CCC4=O)c(CC)n3)nnn2C)c1 (single isomer, unassigned) [Example 54, (R) or (S)-2-(1-(2-ethyl-6-(1-methyl-5-((2-oxo-5-propylpyridin-1(2H)-yl)methyl)-1H-1,2,3-triazol-4-yl)pyridin-3-yl)-6-oxopiperidin-3-yl)acetic acid]
> 7.00 | CCCc1ccc(=O)n(Cc2c(-c3ccc(N4CCC[C@H](CC(=O)O)C4)c(C(F)(F)F)n3)nnn2C)c1 [Example 58, 2-[(3R)-1-(6-{1-methyl-5-[(2-oxo-5-propyl-1,2-dihydropyridin-1-yl)methyl]-1H-1,2,3-triazol-4-yl}-2-(trifluoromethyl)pyridin-3-yl)piperidin-3-yl]acetic acid]
5.30 to 6.30 | CCCc1ccc(=O)n(Cc2c(-c3ccc(CN4CC(C(=O)O)CC(F)(F)C4)c(C)n3)nnn2C)c1 (single isomer, unassigned) [Example 157, (R) or (S)-5,5-difluoro-1-((2-methyl-6-(1-methyl-5-((2-oxo-5-propylpyridin-1(2H)-yl)methyl)-1H-1,2,3-triazol-4-yl)pyridin-3-yl)methyl)piperidine-3-carboxylic acid]
6.30 to 7.00 | CCCc1ccc(=O)n(Cc2c(-c3ccc(N4CCC[C@H](CC(=O)O)C4)c(CC)n3)nnn2C)c1 [Example 22, (R)-2-(1-(2-ethyl-6-(1-methyl-5-((2-oxo-5-propylpyridin-1(2H)-yl)methyl)-1H-1,2,3-triazol-4-yl)pyridin-3-yl)piperidin-3-yl)acetic acid]
6.30 to 7.00 | Cc1nc(-c2nnn(C)c2COC(=O)N(C)CC2CC2)ccc1N1C[C@@H](CC(=O)O)CC(F)(F)C1 [Example 140, (S)-2-(1-(6-(5-((((cyclopropylmethyl)(methyl)carbamoyl)oxy)methyl)-1-methyl-1H-1,2,3-triazol-4-yl)-2-methylpyridin-3-yl)-5,5-difluoropiperidin-3-yl)acetic acid]
6.30 to 7.00 | CCCc1ccc(=O)n(Cc2c(-c3ccc(CN4CC(C(=O)O)CC(F)(F)C4)c(CC)n3)nnn2C)c1 (single isomer, unassigned) [Example 150, (R) or (S)-1-((2-ethyl-6-(1-methyl-5-((2-oxo-5-propylpyridin-1(2H)-yl)methyl)-1H-1,2,3-triazol-4-yl)pyridin-3-yl)methyl)-5,5-difluoropiperidine-3-carboxylic acid]
< 5.30 | CCCc1ccc(=O)n(Cc2c(-c3cc(F)c(N4CCCC(CC(=O)O)C4)c(C)n3)nnn2C)c1 (centres unmarked) [Example 47, 2-(1-(4-fluoro-2-methyl-6-(1-methyl-5-((2-oxo-5-propylpyridin-1(2H)-yl)methyl)-1H-1,2,3-triazol-4-yl)pyridin-3-yl)piperidin-3-yl)acetic acid]
< 5.30 | CCc1nc(-c2cnn(C)c2Cn2cc(CC3CC3)nn2)ncc1N1C[C@@H](CC(=O)O)CC(F)(F)C1 [Example 135, (S)-2-(1-(2-(5-((4-(cyclopropylmethyl)-1H-1,2,3-triazol-1-yl)methyl)-1-methyl-1H-pyrazol-4-yl)-4-ethylpyrimidin-5-yl)-5,5-difluoropiperidin-3-yl)acetic acid]
6.30 to 7.00 | CCc1nc(-c2nnn(C)c2COc2cn(CC(C)C)nn2)ccc1N1C[C@@H](CC(=O)O)CC(F)(F)C1 [Example 128, (S)-2-(1-(2-ethyl-6-(5-(((1-isobutyl-1H-1,2,3-triazol-4-yl)oxy)methyl)-1-methyl-1H-1,2,3-triazol-4-yl)pyridin-3-yl)-5,5-difluoropiperidin-3-yl)acetic acid]
6.30 to 7.00 | Cc1nc(-c2nnn(C)c2Cn2cc(CC3CC3)nn2)ccc1N1C[C@@H](CC(=O)O)CC(F)(F)C1 [Example 133, (S)-2-(1-(6-(5-((4-(cyclopropylmethyl)-1H-1,2,3-triazol-1-yl)methyl)-1-methyl-1H-1,2,3-triazol-4-yl)-2-methylpyridin-3-yl)-5,5-difluoropiperidin-3-yl)acetic acid]
> 7.00 | CCc1nc(-c2nnn(C)c2COc2nnn(CC3CC3)n2)ccc1N1C[C@@H](CC(=O)O)CC(F)(F)C1 [Example 125, (S)-2-(1-(6-(5-(((2-(cyclopropylmethyl)-2H-tetrazol-5-yl)oxy)methyl)-1-methyl-1H-1,2,3-triazol-4-yl)-2-ethylpyridin-3-yl)-5,5-difluoropiperidin-3-yl)acetic acid]
< 5.30 | CCCc1cnn(Cc2c(-c3ccc(N4C[C@@H](CC(=O)O)CC(F)(F)C4)c(C)n3)nnn2C)c(=O)c1 [Example 33, (S)-2-(5,5-difluoro-1-(2-methyl-6-(1-methyl-5-((6-oxo-4-propylpyridazin-1(6H)-yl)methyl)-1H-1,2,3-triazol-4-yl)pyridin-3-yl)piperidin-3-yl)acetic acid]
< 5.30 | CCCc1ccc(=O)n(Cc2c(-c3ccc(N4CCC[C@H](CC(=O)O)C4)c(C#N)n3)nnn2C)c1 [Example 50, (R)-2-(1-(2-cyano-6-(1-methyl-5-((2-oxo-5-propylpyridin-1(2H)-yl)methyl)-1H-1,2,3-triazol-4-yl)pyridin-3-yl)piperidin-3-yl)acetic acid]
5.30 to 6.30 | CCc1nc(-c2nnn(C)c2CNc2nncc(C3CC3)n2)ccc1N1C[C@H](CC(=O)O)CC(F)(F)C1 (stereo in doubt) [Example 112, (R)-2-(1-(6-(5-(((5-cyclopropyl-1,2,4-triazin-3-yl)amino)methyl)-1-methyl-1H-1,2,3-triazol-4-yl)-2-ethylpyridin-3-yl)-5,5-difluoropiperidin-3-yl)acetic acid]
